# Molecular target: P. falciparum apicoplast DNA polymerase (Pf-apPOL) (Plasmodium falciparum, UniProt Q8ILY1)
# Assay: Fluorescence-based high-throughput DNA polymerase assay (molecular beacon), primary screen and dose-response;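 as to % inhibition ApPOL 90': test concentration in µM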;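 as to % inhibition apPOL 180': test concentration in µM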
# Type: biochemical
# In short: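 Single-point screening used 10 µM compound with 20 nM polymerase, 20 nM hairpin substrate and 6 µM dNTPs for 90 min at 25 °C. Confirmatory titrations (2.5–80 µM) followed fluorescence at three times, and IC50 was derived from a fit including a cooperativity term n.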
# [1] = primary screen value of the 186 hits; unit not given; 90 min, 10 µM
# Sequence of P. falciparum apicoplast DNA polymerase (Pf-apPOL) (Q8ILY1 entry or part of it): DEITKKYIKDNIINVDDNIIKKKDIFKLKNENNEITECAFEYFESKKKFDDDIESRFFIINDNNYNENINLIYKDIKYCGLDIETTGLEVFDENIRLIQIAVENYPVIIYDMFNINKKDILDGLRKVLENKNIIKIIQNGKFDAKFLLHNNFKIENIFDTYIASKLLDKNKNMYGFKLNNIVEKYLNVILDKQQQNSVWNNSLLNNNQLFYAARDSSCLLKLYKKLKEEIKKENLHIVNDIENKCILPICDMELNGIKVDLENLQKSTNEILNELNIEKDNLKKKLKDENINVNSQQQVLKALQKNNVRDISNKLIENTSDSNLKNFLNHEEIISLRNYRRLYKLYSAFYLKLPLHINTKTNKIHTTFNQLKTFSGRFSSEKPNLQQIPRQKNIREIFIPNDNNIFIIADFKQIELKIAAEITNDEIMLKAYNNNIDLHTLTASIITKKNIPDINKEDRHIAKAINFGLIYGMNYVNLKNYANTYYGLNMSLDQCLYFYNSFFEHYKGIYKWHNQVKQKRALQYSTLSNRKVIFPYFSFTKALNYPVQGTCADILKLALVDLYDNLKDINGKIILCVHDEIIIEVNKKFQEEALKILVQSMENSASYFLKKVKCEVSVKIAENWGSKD
smiles,measurement,setting,value
O=C(Nc1c2c(nn1-c1ccc(Oc3ccccc3)cc1)CSC2)c1ccco1 [KU0055927],% inhibition Apo pol 10',DRC-1; 10'; concentration 2.5,13.8958%
same,% inhibition Apo pol 10',DRC-1; 10'; concentration 5,29.5283%
same,% inhibition Apo pol 10',DRC-1; 10'; concentration 10,43.1911%
same,% inhibition Apo pol 10',DRC-1; 10'; concentration 20,76.7664%
same,% inhibition Apo pol 10',DRC-1; 10'; concentration 40,85.1313%
same,% inhibition Apo pol 10',DRC-1; 10'; concentration 80,86.5336%
same,% inhibition Apol 90',DRC-1; 90'; concentration 2.5,4.683%
same,% inhibition Apol 90',DRC-1; 90'; concentration 5,16.7633%
same,% inhibition Apol 90',DRC-1; 90'; concentration 10,30.4357%
same,% inhibition Apol 90',DRC-1; 90'; concentration 20,68.2983%
same,% inhibition Apol 90',DRC-1; 90'; concentration 40,80.3407%
same,% inhibition Apol 90',DRC-1; 90'; concentration 80,86.0743%
same,% inhibition apPOL 180',DRC-1; 180'; concentration 2.5,-2.927%
same,% inhibition apPOL 180',DRC-1; 180'; concentration 5,5.714%
same,% inhibition apPOL 180',DRC-1; 180'; concentration 10,15.8435%
same,% inhibition apPOL 180',DRC-1; 180'; concentration 20,54.9886%
same,% inhibition apPOL 180',DRC-1; 180'; concentration 40,72.0227%
same,% inhibition apPOL 180',DRC-1; 180'; concentration 80,82.6026%
same,% inhibition Apol 40',"DRC-2, 40', concentration 5 (unit not given)",12%
same,% inhibition Apol 40',"DRC-2, 40', concentration 40 (unit not given)",69%
same,% inhibition apPOL 180',"DRC-2, 180', concentration 40 (unit not given)",69%
same,% inhibition Apo pol 5',DRC-2; 5'; concentration 2.5,8.44%
same,% inhibition Apo pol 5',DRC-2; 5'; concentration 5,12%
same,% inhibition Apo pol 5',DRC-2; 5'; concentration 5 (unit not given),12%
same,% inhibition Apo pol 5',DRC-2; 5'; concentration 10,40%
same,% inhibition Apo pol 5',DRC-2; 5'; concentration 20,51%
same,% inhibition Apo pol 5',DRC-2; 5'; concentration 40,54%
same,% inhibition Apo pol 5',DRC-2; 5'; concentration 80,55%
same,% inhibition Apol 40',DRC-2; 40'; concentration 2.5,9%
same,% inhibition Apol 40',DRC-2; 40'; concentration 5,12%
same,% inhibition Apol 40',DRC-2; 40'; concentration 10,47%
same,% inhibition Apol 40',DRC-2; 40'; concentration 20,65%
same,% inhibition Apol 40',DRC-2; 40'; concentration 40,69%
same,% inhibition Apol 40',DRC-2; 40'; concentration 80,72%
same,% inhibition ApPOL 90',DRC-2; 90'; concentration 2.5,7%
same,% inhibition ApPOL 90',DRC-2; 90'; concentration 5,9.5%
same,% inhibition ApPOL 90',DRC-2; 90'; concentration 10,45%
same,% inhibition ApPOL 90',DRC-2; 90'; concentration 20,66%
same,% inhibition ApPOL 90',DRC-2; 90'; concentration 40,71%
same,% inhibition ApPOL 90',DRC-2; 90'; concentration 80,75%
same,% inhibition apPOL 180',DRC-2; 180'; concentration 2.5,4%
same,% inhibition apPOL 180',DRC-2; 180'; concentration 5,3.19%
same,% inhibition apPOL 180',DRC-2; 180'; concentration 10,35%
same,% inhibition apPOL 180',DRC-2; 180'; concentration 20,62%
same,% inhibition apPOL 180',DRC-2; 180'; concentration 40,69%
same,% inhibition apPOL 180',DRC-2; 180'; concentration 80,77%
same,DNA Pol,[1],57
same,DNA Pol,"primary screen value, head ""DNA Pol"", unit not given; 90 min, 10 µM",57
CCCCCCCCCCCC1SCC(C(=O)O)N1C(C)=O (stereo not shown) [Molecule 72],% inhibition Apo pol 10',DRC-1; 10'; concentration 2.5,3.482%
same,% inhibition Apo pol 10',DRC-1; 10'; concentration 5,5.699%
same,% inhibition Apo pol 10',DRC-1; 10'; concentration 10,15.2619%
same,% inhibition Apo pol 10',DRC-1; 10'; concentration 20,24.1814%
same,% inhibition Apo pol 10',DRC-1; 10'; concentration 40,35.0794%
same,% inhibition Apo pol 10',DRC-1; 10'; concentration 80,89.6133%
same,% inhibition Apol 90',DRC-1; 90'; concentration 2.5,2.632%
same,% inhibition Apol 90',DRC-1; 90'; concentration 5,5.518%
same,% inhibition Apol 90',DRC-1; 90'; concentration 10,12.9803%
same,% inhibition Apol 90',DRC-1; 90'; concentration 20,20.4329%
same,% inhibition Apol 90',DRC-1; 90'; concentration 40,28.5438%
same,% inhibition Apol 90',DRC-1; 90'; concentration 80,88.679%
same,% inhibition apPOL 180',DRC-1; 180'; concentration 2.5,-2.715%
same,% inhibition apPOL 180',DRC-1; 180'; concentration 5,-0.6083%
same,% inhibition apPOL 180',DRC-1; 180'; concentration 10,5.5577%
same,% inhibition apPOL 180',DRC-1; 180'; concentration 20,11.4894%
same,% inhibition apPOL 180',DRC-1; 180'; concentration 40,17.8626%
same,% inhibition apPOL 180',DRC-1; 180'; concentration 80,86.0518%
same,% inhibition Apo pol 5',DRC-2; 5'; concentration 2.5,13%
same,% inhibition Apo pol 5',DRC-2; 5'; concentration 5,16%
same,% inhibition Apo pol 5',DRC-2; 5'; concentration 10,26%
same,% inhibition Apo pol 5',DRC-2; 5'; concentration 20,38%
same,% inhibition Apo pol 5',DRC-2; 5'; concentration 40,54%
same,% inhibition Apo pol 5',DRC-2; 5'; concentration 80,59%
same,% inhibition Apol 40',DRC-2; 40'; concentration 2.5,10%
same,% inhibition Apol 40',DRC-2; 40'; concentration 5,15%
same,% inhibition Apol 40',DRC-2; 40'; concentration 10,29%
same,% inhibition Apol 40',DRC-2; 40'; concentration 20,44%
same,% inhibition Apol 40',DRC-2; 40'; concentration 40,65%
same,% inhibition Apol 40',DRC-2; 40'; concentration 80,76%
same,% inhibition ApPOL 90',DRC-2; 90'; concentration 2.5,6%
same,% inhibition ApPOL 90',DRC-2; 90'; concentration 5,13%
same,% inhibition ApPOL 90',DRC-2; 90'; concentration 10,26%
same,% inhibition ApPOL 90',DRC-2; 90'; concentration 20,43%
same,% inhibition ApPOL 90',DRC-2; 90'; concentration 40,67%
same,% inhibition ApPOL 90',DRC-2; 90'; concentration 80,81%
same,% inhibition apPOL 180',DRC-2; 180'; concentration 2.5,0.516%
same,% inhibition apPOL 180',DRC-2; 180'; concentration 5,5%
same,% inhibition apPOL 180',DRC-2; 180'; concentration 10,17%
same,% inhibition apPOL 180',DRC-2; 180'; concentration 20,34%
same,% inhibition apPOL 180',DRC-2; 180'; concentration 40,64%
same,% inhibition apPOL 180',DRC-2; 180'; concentration 80,84%
same,% inhibition Apo pol 5',conc. 2.5; 5'; DRC-2,13%
same,% inhibition ApPOL 90',conc. 5; 90'; DRC-2,13%
same,% inhibition Apo pol 5',conc. 10; 5'; DRC-2,26%
same,% inhibition ApPOL 90',conc. 10; 90'; DRC-2,26%
same,DNA Pol,"primary screen value by plate and well; 90 min, 10 µM",90
same,DNA Pol,[1],90
same,IC50,"supplemental file 2, sheet IC50 nontoxic compounds; Pf-apPOL",48.9 µM
"O=C(Cn1ccc2c(=O)[nH]ccc21)Nc1ccccc1Cl [Molecule 19, O=C(Cn1ccc2c1cc[nH]c2=O)Nc1ccccc1Cl]",% inhibition Apo pol 10',DRC-1; concentration 2.5; 10',11.0481%
same,% inhibition Apol 90',DRC-1; concentration 2.5; 90',3.184%
same,% inhibition apPOL 180',DRC-1; concentration 2.5; 180',-2.947%
same,% inhibition Apo pol 10',DRC-1; concentration 5; 10',18.9507%
same,% inhibition Apol 90',DRC-1; concentration 5; 90',7.548%
same,% inhibition apPOL 180',DRC-1; concentration 5; 180',-2.382%
same,% inhibition Apo pol 10',DRC-1; concentration 10; 10',79.9443%
same,% inhibition Apol 90',DRC-1; concentration 10; 90',71.2049%
same,% inhibition apPOL 180',DRC-1; concentration 10; 180',56.5053%
same,% inhibition Apo pol 10',DRC-1; concentration 20; 10',88.2896%
same,% inhibition Apol 90',DRC-1; concentration 20; 90',90.2431%
same,% inhibition apPOL 180',DRC-1; concentration 20; 180',88.4548%
same,% inhibition Apo pol 10',DRC-1; concentration 40; 10',86.4384%
same,% inhibition Apol 90',DRC-1; concentration 40; 90',91.2458%
same,% inhibition apPOL 180',DRC-1; concentration 40; 180',93.0665%
same,% inhibition Apo pol 10',DRC-1; concentration 80 (unit not given); 10',78.354%
same,% inhibition Apol 90',DRC-1; concentration 80; 90',86.1065%
same,% inhibition apPOL 180',DRC-1; concentration 80; 180',89.6716%
same,% inhibition Apol 40',DRC-2; 40'; concentration 10,65%
same,% inhibition Apol 40',DRC-2; 40'; concentration 40,65%
same,% inhibition apPOL 180',DRC-2; 180'; concentration 20,77%
same,% inhibition apPOL 180',DRC-2; 180'; concentration 40,77%
same,% inhibition Apo pol 5',DRC-2; concentration 2.5; 5',15%
same,% inhibition Apol 40',DRC-2; concentration 2.5; 40',14%
same,% inhibition ApPOL 90',DRC-2; concentration 2.5; 90',9%
same,% inhibition apPOL 180',DRC-2; concentration 2.5; 180',-0.373%
same,% inhibition Apo pol 5',DRC-2; concentration 5; 5',30%
same,% inhibition Apol 40',DRC-2; concentration 5; 40',36%
same,% inhibition ApPOL 90',DRC-2; concentration 5; 90',32%
same,% inhibition apPOL 180',DRC-2; concentration 5; 180',18%
same,% inhibition Apo pol 5',DRC-2; concentration 10; 5',48%
same,% inhibition Apol 40',DRC-2; concentration 10; 40',65%
same,% inhibition ApPOL 90',DRC-2; concentration 10; 90',67%
same,% inhibition apPOL 180',DRC-2; concentration 10; 180',63%
same,% inhibition Apo pol 5',DRC-2; concentration 20; 5',44%
same,% inhibition Apol 40',DRC-2; concentration 20; 40',68%
same,% inhibition ApPOL 90',DRC-2; concentration 20; 90',73%
same,% inhibition apPOL 180',DRC-2; concentration 20; 180',77%
same,% inhibition Apo pol 5',DRC-2; concentration 40; 5',37%
same,% inhibition Apol 40',DRC-2; concentration 40; 40',65%
same,% inhibition ApPOL 90',DRC-2; concentration 40; 90',70%
same,% inhibition apPOL 180',DRC-2; concentration 40; 180',77%
same,% inhibition Apo pol 5',DRC-2; concentration 80; 5',28%
same,% inhibition Apol 40',DRC-2; concentration 80; 40',56%
same,% inhibition ApPOL 90',DRC-2; concentration 80; 90',64%
same,% inhibition apPOL 180',DRC-2; concentration 80; 180',72%
same,DNA Pol,[1],82
same,DNA Pol,"primary screen value; head prints only 'DNA Pol'; 90 min, 10 µM",82

# From PMC9090415, “Discovery of small molecule inhibitors of Plasmodium falciparum apicoplast DNA polymerase” (Journal of Enzyme Inhibition and Medicinal Chemistry, 2022)
